Experimental findings from ChEMBL document CHEMBL5338823, “Discovery of Novel 5,6-Dihydro-1,2,4-triazine Derivatives as Efficacious Glucagon-Like Peptide-1 Receptor Agonists” (J Med Chem, 2023) are described below.

Active and inactive are the calls of the source. The calls are words filed in the database; no cut-off is given here.

The EC50 is the concentration that produces a half-maximal response. As usually defined, the inhibition is the change of the read-out against control, counted positive when it falls. In general, half-life refers to the time in which the quantity being followed falls by half. For orientation: IC50 means the concentration needed to halve the response being measured. As a reminder, the Papp A→B is how fast a substance crosses the layer from the apical side.

The target of data set [1] is Glucagon-like peptide 1 receptor (Homo sapiens, UniProt P43220). Description: Agonist activity at N-terminal HA-tagged human GLP-1R expressed in HEK293 cells assessed as effect on intracellular cAMP accumulation incubated for 30 mins by LANCA ultra cAMP assay. The format is functional, cell-based.
Sequence of Glucagon-like peptide 1 receptor (P43220 whole entry): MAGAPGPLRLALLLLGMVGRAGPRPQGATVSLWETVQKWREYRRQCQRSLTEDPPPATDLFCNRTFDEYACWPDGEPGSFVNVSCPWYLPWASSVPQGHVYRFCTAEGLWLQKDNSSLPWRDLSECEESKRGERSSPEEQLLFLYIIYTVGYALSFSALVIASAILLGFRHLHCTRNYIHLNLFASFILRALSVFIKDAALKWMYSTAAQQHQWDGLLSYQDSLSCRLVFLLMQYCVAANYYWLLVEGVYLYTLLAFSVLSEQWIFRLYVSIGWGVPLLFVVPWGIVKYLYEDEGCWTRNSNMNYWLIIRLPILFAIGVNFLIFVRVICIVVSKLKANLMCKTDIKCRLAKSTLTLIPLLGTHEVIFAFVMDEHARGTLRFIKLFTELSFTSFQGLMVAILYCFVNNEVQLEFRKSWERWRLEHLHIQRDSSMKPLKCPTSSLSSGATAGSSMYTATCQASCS
A short description of data set [2]: Stability in mouse liver microsomes assessed as intrinsic clearance at 1 uM measured upto 60 mins in the presence of NADPH by LC-MS/MS analysis. The note with it: 1 h. It is filed as ADME, Microsome. In general terms: Liver microsomes are a subcellular fraction often used to study metabolism.
Data set [3] deals with T1, hERG (KCNH2) (Homo sapiens, UniProt Q12809). Description: Inhibition of hERG at 40 uM relative to control. Background: Block of hERG is tested as a sign of cardiac risk.
T1 sequence (Q12809 whole entry): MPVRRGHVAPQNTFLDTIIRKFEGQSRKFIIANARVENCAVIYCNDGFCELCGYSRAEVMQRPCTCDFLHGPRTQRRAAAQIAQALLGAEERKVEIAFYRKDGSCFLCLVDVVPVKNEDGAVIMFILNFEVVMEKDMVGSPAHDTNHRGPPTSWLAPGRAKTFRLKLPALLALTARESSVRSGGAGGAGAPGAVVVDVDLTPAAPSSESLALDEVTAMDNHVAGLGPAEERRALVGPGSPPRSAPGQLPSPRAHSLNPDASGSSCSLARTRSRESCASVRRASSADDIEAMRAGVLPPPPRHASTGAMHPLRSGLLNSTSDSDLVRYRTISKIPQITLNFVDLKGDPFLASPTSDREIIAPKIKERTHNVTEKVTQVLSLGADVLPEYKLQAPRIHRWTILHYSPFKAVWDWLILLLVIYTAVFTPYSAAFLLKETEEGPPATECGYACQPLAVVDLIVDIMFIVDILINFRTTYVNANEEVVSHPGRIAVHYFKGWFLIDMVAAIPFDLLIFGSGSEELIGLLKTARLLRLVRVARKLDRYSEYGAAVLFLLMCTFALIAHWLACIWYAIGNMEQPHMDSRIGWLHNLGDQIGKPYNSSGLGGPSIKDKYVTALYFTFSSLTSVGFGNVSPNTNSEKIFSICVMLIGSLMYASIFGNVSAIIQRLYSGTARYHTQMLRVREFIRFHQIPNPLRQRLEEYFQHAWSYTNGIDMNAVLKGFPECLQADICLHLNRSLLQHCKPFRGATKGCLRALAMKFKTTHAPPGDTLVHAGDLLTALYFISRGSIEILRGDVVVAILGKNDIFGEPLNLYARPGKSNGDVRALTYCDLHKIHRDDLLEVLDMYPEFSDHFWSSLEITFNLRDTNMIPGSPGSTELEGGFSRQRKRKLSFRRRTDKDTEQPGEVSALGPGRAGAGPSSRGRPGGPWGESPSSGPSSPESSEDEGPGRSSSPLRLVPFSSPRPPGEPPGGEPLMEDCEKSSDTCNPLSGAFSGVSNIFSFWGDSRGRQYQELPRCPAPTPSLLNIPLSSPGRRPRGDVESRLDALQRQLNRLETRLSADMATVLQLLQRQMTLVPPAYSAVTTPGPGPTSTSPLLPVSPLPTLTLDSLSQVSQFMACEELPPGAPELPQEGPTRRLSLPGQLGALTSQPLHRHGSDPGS
A short description of data set [4]: Stability in mouse liver microsomes assessed as half-life at 1 uM measured upto 60 mins in the presence of NADPH by LC-MS/MS analysis. The format is ADME, Microsome.
A short description of data set [5]: Stability in human liver microsomes assessed as intrinsic clearance at 1 uM measured upto 60 mins in the presence of NADPH by LC-MS/MS analysis. Conditions: 1 h. The format is ADME, Microsome.
Data set [6] can be described thus: Stability in rat liver microsomes assessed as half-life at 1 uM measured upto 60 mins in the presence of NADPH by LC-MS/MS analysis. The format is ADME, Microsome.
Data set [7] addresses Voltage-gated inwardly rectifying potassium channel KCNH2 (Homo sapiens, UniProt Q12809). Description: Inhibition of hERG.
Data set [8] can be described thus: Stability in human liver microsomes assessed as half-life at 1 uM measured upto 60 mins in the presence of NADPH by LC-MS/MS analysis. The format is ADME, Microsome.
A short description of data set [9]: Stability in rat liver microsomes assessed as intrinsic clearance at 1 uM measured upto 60 mins in the presence of NADPH by LC-MS/MS analysis. It is filed as ADME, Microsome. Conditions: 1 h.
Data set [10] in a line: Drug concentration in C57BL/6J mouse plasma at 5 mg/kg, po measured after 4 hrs by LC-MS/MS analysis. The format is ADME, organism-based.
Data set [11] can be described thus: Drug concentration in C57BL/6J mouse plasma at 5 mg/kg, po measured after 1 hrs by LC-MS/MS analysis. It is filed as ADME, organism-based.
Data set [12] in a line: Apparent permeability across apical to basolateral side in human Caco-2 cells at 10 uM measured after 95 mins by LC-MS/MS analysis. The format is ADME, cell-based.
The target in data set [13] is T1, hERG (KCNH2). Description: Inhibition of hERG at 3 uM relative to control.
The target of data set [14] is T2, Glucagon-like peptide 1 receptor (Mus musculus) (UniProt O35659).
T2 sequence (whole entry): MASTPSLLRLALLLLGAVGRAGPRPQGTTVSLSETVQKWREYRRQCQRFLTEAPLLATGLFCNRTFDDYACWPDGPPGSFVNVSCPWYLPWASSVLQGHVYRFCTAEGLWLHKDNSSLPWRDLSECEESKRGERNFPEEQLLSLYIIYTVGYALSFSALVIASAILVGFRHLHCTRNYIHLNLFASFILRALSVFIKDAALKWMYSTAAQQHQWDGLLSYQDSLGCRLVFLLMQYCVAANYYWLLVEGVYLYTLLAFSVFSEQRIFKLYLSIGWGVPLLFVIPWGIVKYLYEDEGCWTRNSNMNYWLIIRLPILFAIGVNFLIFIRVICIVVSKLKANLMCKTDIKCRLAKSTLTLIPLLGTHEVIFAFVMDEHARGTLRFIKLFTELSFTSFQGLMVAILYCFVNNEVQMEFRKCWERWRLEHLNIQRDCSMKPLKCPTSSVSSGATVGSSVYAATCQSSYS
Description: Activation of mouse GLP-1R.

The subject of data set [15] is Mus musculus. Description: In vivo agonist activity at GLP-1R in C57BL/6J mouse with human GLP-1R knock-in assessed as reduction in food intake at 30 mg/kg, sc measured after 2.5 to 12 hrs in dark cycle. The note with it: time 2.5-12 hrs. The format is functional, organism-based.
The test system of data set [16] is Mus musculus. Description: In vivo agonist activity at GLP-1R in C57BL/6J mouse with human GLP-1R knock-in assessed as reduction in blood glucose level at 1 mg/kg, po pre-treated with compound for 1 hrs followed by glucose administration and measured upto 90 mins by Oral Glucose Tolerance Test. The format is functional, organism-based. Conditions: time <= 150.0 min.

Sequence of Voltage-gated inwardly rectifying potassium channel KCNH2 (Q12809 whole entry): as the sequence (Q12809 whole entry) above

With `O=C(O)c1ccc2nc(Cn3ccc(-c4cccc(OCc5ccc(Cl)cc5F)n4)nc3=O)n(C[C@@H]3CCO3)c2c1`, the EC50 in [1] is over 10 µM.

`COc1cc(Cl)ccc1COc1cccc(N2C=NN(Cc3nc4c(F)cc(C(=O)O)cc4n3C[C@@H]3CCO3)CC2)n1`: the values for the CLH in data set [2], in [5] and in data set [9] were 49 mL/min/g, 21 mL/min/g and 45 mL/min/g, respectively. Further, the inhibition at 40 µM in data set [3] came to 44%. Moreover, the half-life at 1 µM in [4] amounted to 0.717 h; in [6], 0.783 h; in data set [8], 1.67 h. For the same molecule, the IC50 in [7] is over 40 µM.

For `N#Cc1ccc(COc2cccc(N3C[C@H]4CN(Cc5nc6ccc(C(=O)O)cc6n5C[C@@H]5CCO5)C[C@H]4C3)n2)c(F)c1`, the concentration for a half-maximal effect (EC50) in [1] is over 10 µM.

As to `N#Cc1ccc(COc2cccc(OC3CCN(Cc4nc5ccc(C(=O)O)cc5n4C[C@@H]4CCO4)CC3)n2)c(F)c1`, the EC50 in data set [1] was found to be 0.0007 µM.

With `O=C(O)c1cc(F)c2nc(CN3CCN(c4cccc(OCc5ccc(Cl)c6cc(F)oc56)n4)C=N3)n(C[C@@H]3CCO3)c2c1`, the values for the CLH in data set [2], in data set [5] and in data set [9] were 21 mL/min/g, 13 mL/min/g and 22 mL/min/g, respectively. In addition, the half-life at 1 µM stood at 1.72 h in data set [4], 1.58 h in [6] and 2.77 h in [8].

`COc1cc(C#N)ccc1COc1cccc(N2C=NN(Cc3nc4c(F)cc(C(=O)O)cc4n3C[C@@H]3CCO3)CC2)n1`: the results for the CLH in [2], in [5] and in [9] were 12 mL/min/g, 6 mL/min/g and 16 mL/min/g, respectively. For the same molecule, the inhibition at 40 µM in data set [3] worked out at 50%. Also, the half-life at 1 µM in data set [4] was found to be 3.03 h; in data set [6], 2.23 h; in [8], 5.45 h. For the same molecule, the 50% inhibitory concentration (IC50) in data set [7] is over 40 µM. Moreover, in data set [10], the concentration at 4 h was 3 ng/mL. Besides, the concentration at 1 h in [11] was 12 ng/mL. Moreover, the Papp A→B at 1.583 h, 10 µM in data set [12] stood at 0.19 ×10⁻⁶ cm/s.

On to `N#Cc1ccc(COc2cccc(N3C=NN(Cc4nc5c(F)cc(C(=O)O)cc5n4C[C@@H]4CCO4)CC3)n2)c2occc12`, for which the CLH is 17 mL/min/g in data set [2], 14 mL/min/g in data set [5] and 33 mL/min/g in data set [9]. The inhibition at 40 µM in data set [3] worked out at 30%. Moreover, the half-life at 1 µM was determined as 2.07 h in data set [4], 1.05 h in data set [6] and 2.48 h in [8]. The IC50 in data set [7] was over 40 µM.

In the case of `O=C(O)c1cc(F)c2nc(CN3CCN(c4cccc(OCc5ccc(Cl)c6c5OCC6)n4)C=N3)n(C[C@@H]3CCO3)c2c1`, the CLH in [2] was 67 mL/min/g; in data set [5], 23 mL/min/g; in data set [9] it was 59 mL/min/g. In data set [3], this molecule registered an inhibition at 40 µM of 51%. The half-life at 1 µM in [4] was 0.517 h; in data set [6], 0.6 h; in [8], 1.5 h. This molecule also registered an IC50 in data set [7] of 0.05 µM.

Take `N#Cc1ccc(COc2cccc(N3CCC4(CN(Cc5nc6ccc(C(=O)O)cc6n5C[C@@H]5CCO5)C4)C3)n2)c(F)c1`: in data set [1], the EC50 turned out to be 5.01 µM.

On to `N#Cc1ccc(COc2cccc(N3CC4(CC3=O)CN(Cc3nc5ccc(C(=O)O)cc5n3C[C@@H]3CCO3)C4)n2)c(F)c1`, for which the EC50 in [1] was over 10 µM.

`COc1cc(N)c(Cl)cc1C(=O)N[C@H]1CCN(CCCOc2ccc(F)cc2)C[C@H]1OC` [REL-CISAPRIDE] returned an inhibition at 3 µM in data set [13] of 92%.

Turning to `N#Cc1ccc(COc2cccc(N3CCC(NCc4nc5ccc(C(=O)O)cc5n4C[C@@H]4CCO4)CC3)n2)c(F)c1`, the EC50 in data set [1] is 0.153 µM.

With `N#Cc1ccc(COc2cccc(C3CCN(Cc4nc5ccc(C(=O)O)cc5n4C[C@@H]4CCO4)CC3)n2)c(F)c1` [DANUGLIPRON], the CLH is 13 mL/min/g in [2], 5 mL/min/g in [5] and 13 mL/min/g in data set [9]. In data set [3], 40 µM produced 90% inhibition. In addition, the half-life at 1 µM was determined as 2.8 h in data set [4], 2.72 h in data set [6] and 6.92 h in data set [8]. Also, the outcome in data set [14] was inactive. Besides, the outcome in [15] and in [16] was Active.

`N#Cc1ccc(COc2cccc(N3C=NN(Cc4nc5ccc(C(=O)O)cc5n4C[C@@H]4CCO4)CC3)n2)c(F)c1` gave an inhibition at 40 µM in data set [3] of 48%. This molecule also had a concentration for half-maximal inhibition (IC50) in data set [7] of over 40 µM.

Consider `CC1CN(c2cccc(OCc3ccc(C#N)cc3F)n2)C=NN1Cc1nc2ccc(C(=O)O)cc2n1C[C@@H]1CCO1` (stereo partly specified), for which the concentration giving a half-maximal response (EC50) in data set [1] amounted to 0.0006 µM.
